Measurements: patent US6911469B2, “Sulfonamide compounds and pharmaceutical use thereof” (Fujisawa Pharmaceutical Co., Ltd., priority 1997, dated 2005)

SMILES | melting point [°C]
COc1ccc(Cn2c(C)nc3ccc(C(=O)NS(=O)(=O)c4ccccc4)nc32)c(Cl)c1 [Example 78, 5-(benzenesulfonylcarbamoyl)-3-(2-chloro-4-methoxybenzyl)-2-methyl-3H-imidazo[4,5-b]pyridine] | 151 to 152
Cc1nc2ccc(C(=O)NS(=O)(=O)c3ccccc3)nc2n1Cc1ccc(OC(C)C)cc1Cl [Example 79, 5-(benzenesulfonylcarbamoyl)-3-(2-chloro-4-isopropoxybenzyl)-2-methyl-3H-imidazo[4,5-b]pyridine] | 177 to 179
CCCCOc1ccc(Cn2c(C)nc3ccc(C(=O)NS(=O)(=O)c4ccccc4)nc32)c(Cl)c1 [Example 80, 5-(benzenesulfonylcarbamoyl)-3-(4-(n-butoxy)-2-chlorobenzyl)-2-methyl-3H-imidazo[4,5-b]pyridine] | 181 to 182
Cc1nc2ccc(C(=O)NS(=O)(=O)c3ccccc3)nc2n1Cc1ccc(OCC2CCCCC2)cc1Cl [Example 81, 5-(benzenesulfonylcarbamoyl)-3-(2-chloro-4-((cyclohexylmethyl)oxy)benzyl)-2-methyl-3H-imidazo[4,5-b]pyridine] | 122 to 125
Cc1nc2ccc(C(=O)NS(=O)(=O)c3ccccc3)nc2n1Cc1ccc(OCCN(C)c2ccccn2)cc1Cl [Example 82, 5-(benzenesulfonylcarbamoyl)-3-(2-chloro-4-((2-(N-methyl-N-(2-pyridinyl)amino)ethyl)oxy)benzyl)-2-methyl-3H-imidazo[4,5-b]pyridine] | 104 to 105
CSc1ccc(Cn2c(C)nc3ccc(C(=O)NS(=O)(=O)c4ccccc4)nc32)c(Cl)c1 [Example 83, 5-(benzenesulfonylcarbamoyl)-3-(2-chloro-4-(methylthio)benzyl)-2-methyl-3H-imidazo[4,5-b]pyridine] | 165 to 166
Cc1nc2ccc(C(=O)NS(=O)(=O)c3ccccc3)nc2n1Cc1ccc([S+](C)[O-])cc1Cl (stereo not drawn) [Example 84, 5-(benzenesulfonylcarbamoyl)-3-(2-chloro-4-(methylsulfinyl)benzyl)-2-methyl-3H-imidazo[4,5-b]pyridine] | 230 to 231
Cc1nc2ccc(C(=O)NS(=O)(=O)c3ccccc3)nc2n1Cc1ccc(C=O)cc1Cl [Example 92, 5-(benzenesulfonylcarbamoyl)-3-(2-chloro-4-formylbenzyl)-2-methyl-3H-imidazo[4,5-b]pyridine] | 253 to 255
Cc1nc2ccc(C(=O)NS(=O)(=O)c3ccccc3)nc2n1Cc1ccc(C=C2SC(=O)NC2=O)cc1Cl [Example 93, 5-(benzenesulfonylcarbamoyl)-3-[2-chloro-4-[(2,4-dioxo-1,3-thiazolidine-5-ylidene)methyl]benzyl]-2-methyl-3H-imidazo[4,5-b]pyridine] | 271 to 274
CCCCCS(=O)(=O)NC(=O)c1cc(C)c2nc(C)n(Cc3ccc(Br)cc3Cl)c2n1 [Example 105, 3-(4-bromo-2-chlorobenzyl)-2,7-dimethyl-5-(pentanesulfonylcarbamoyl)-3H-imidazo[4,5-b]pyridine] | 148 to 149
Cc1nc2ccc(C(=O)NS(=O)(=O)c3ccccc3)nc2n1Cc1ccc(C#N)cc1Cl [Example 108, 5-(benzenesulfonylcarbamoyl)-3-(2-chloro-4-cyanobenzyl)-2-methyl-3H-imidazo[4,5-b]pyridine] | 242 to 243
Cc1cc(C(=O)NS(=O)(=O)c2ccc(Br)s2)nc2c1nc(C)n2Cc1ccc2ccccc2c1Br [Example 112, 3-(1-bromonaphthalen-2-ylmethyl)-5-((5-bromothiophene-2-yl)sulfonylcarbamoyl)-2,7-dimethyl-3H-imidazo[4,5-b]pyridine] | 247 to 248
Cc1nc2ccc(C(=O)NS(=O)(=O)c3ccccc3)nc2n1Cc1ccc(CCc2ccccc2)cc1Cl [Example 113, 5-(benzenesulfonylcarbamoyl)-3-(2-chloro-4-(2-phenylethyl)benzyl)-2-methyl-3H-imidazo[4,5-b]pyridine] | 180 to 181
Cc1nc2ccc(C(=O)NS(=O)(=O)c3ccccc3)nc2n1Cc1ccc(CO)cc1Cl [Example 115, 5-(Benzenesulfonylcarbamoyl)-3-(2-chloro-4-(hydroxymethyl)benzyl)-2-methyl-3H-imidazo[4,5-b]pyridine] | 198 to 199
Cc1nc2ccc(C(=O)NS(=O)(=O)c3ccccc3)nc2n1Cc1ccc(C(=O)O)cc1Cl [Example 116, 5-(benzenesulfonylcarbamoyl)-3-(4-carboxy-2-chlorobenzyl)-2-methyl-3H-imidazo[4,5-b]pyridine] | 155 to 160
Cc1nc2ccc(C(=O)NS(=O)(=O)c3ccccc3)nc2n1Cc1ccc(COc2ccccc2)cc1Cl [Example 118, 5-(benzenesulfonylcarbamoyl)-3-(2-chloro-4-((phenyloxy)methyl)-benzyl)-2-methyl-3H-imidazo[4,5-b]pyridine] | 203 to 205
CCOC(=O)c1ccc(Cn2c(C)nc3ccc(C(=O)NS(=O)(=O)c4ccccc4)nc32)c(Cl)c1 [Example 119, 5-(benzenesulfonylcarbamoyl)-3-(2-chloro-4-(ethoxycarbonyl)benzyl)-2-methyl-3H-imidazo[4,5-b]pyridine] | 196 to 197
CNC(=O)c1ccc(Cn2c(C)nc3ccc(C(=O)NS(=O)(=O)c4ccccc4)nc32)c(Cl)c1 [Example 120, 5-(Benzenesulfonylcarbamoyl)-3-(2-chloro-4-(methylcarbamoyl)benzyl)-2-methyl-3H-imidazo[4,5-b]pyridine] | 257 to 260
Cc1cc(C(=O)NS(=O)(=O)c2ccccc2)nc2c1nc(C)n2Cc1ccc(Br)cc1Cl [Example 121, 5-(Benzenesulfonylcarbamoyl)-3-(4-bromo-2-chlorobenzyl)-2,7-dimethyl-3H-imidazo[4,5-b]pyridine] | 231 to 232
CSc1ccc(Cn2c(C)nc3ccc(C(=O)NS(=O)(=O)/C=C/c4ccccc4)nc32)c(Cl)c1 [Example 148, 3-(2-chloro-4-(methylthio)benzyl)-2-methyl-5-(E)-[(2-phenylethenyl)sulfonylcarbamoyl]-3H-imidazo[4,5-b]pyridine] | 175 to 176
CSc1ccc(Cn2c(C)nc3ccc(C(=O)NS(=O)(=O)c4ccc(Cl)s4)nc32)c(Cl)c1 [Example 149, 3-(2-chloro-4-(methylthio)benzyl)-5-[(5-chlorothiophen-2-yl)sulfonylcarbamoyl]-2-methyl-3H-imidazo[4,5-b]pyridine] | 170 to 171
CSc1ccc(Cn2c(C)nc3ccc(C(=O)NS(=O)(=O)c4ccc(Br)s4)nc32)c(Cl)c1 [Example 150, 3-[2-chloro-4-(methylthio)benzyl]-5-[(5-bromothiophen-2-yl)sulfonylcarbamoyl]-2-methyl-3H-imidazo[4,5-b]pyridine] | 169 to 170
CCCCCS(=O)(=O)NC(=O)c1ccc2nc(C)n(Cc3ccc(SC)cc3Cl)c2n1 [Example 151, 3-(2-chloro-4-(methylthio)benzyl)-2-methyl-5-(1-pentanesulfonylcarbamoyl)-3H-imidazo[4,5-b]pyridine] | 184 to 185

More lines, now with the values ahead:

melting point [°C] | SMILES
154 to 155 | CCCCCS(=O)(=O)NC(=O)c1ccc2nc(C)n(Cc3ccc(C(F)(F)F)cc3Cl)c2n1 [Example 102-2, 3-[2-chloro-4-(trifluoromethyl)-benzyl]-2-methyl-5-(1-pentanesulfonylcarbamoyl)-3H-imidazo[4,5-b]pyridine]
210 to 211 | CCCCCS(=O)(=O)NC(=O)c1cc(C)c2nc(C)n(Cc3ccc4ccccc4c3Br)c2n1 [Example 104-1, 3-(1-bromonaphthalen-2-ylmethyl)-2,7-dimethyl-5-(pentanesulfonylcarbamoyl)-3H-imidazo[4,5-b]pyridine]
229 to 230 | Cc1cc(C(=O)NS(=O)(=O)c2ccccc2)nc2c1nc(C)n2Cc1ccc2ccccc2c1Br [Example 104-2, 5-(benzenesulfonylcarbamoyl)-3-(1-bromonaphthalen-2-ylmethyl)-2,7-dimethyl-3H-imidazo[4,5-b]pyridine]
262 to 263 | Cc1cc(C(=O)NS(=O)(=O)/C=C/c2ccccc2)nc2c1nc(C)n2Cc1ccc2ccccc2c1Br [Example 104-3, (E)-3-(1-bromonaphthalen-2-ylmethyl)-2,7-dimethyl-5-((2-phenylethenyl)sulfonylcarbamoyl)-3H-imidazo[4,5-b]pyridine]
213 to 214 | Cc1cc(C(=O)NS(=O)(=O)c2ccc(Cl)s2)nc2c1nc(C)n2Cc1ccc2ccccc2c1Br [Example 104-6, 3-(1-bromonaphthalen-2-ylmethyl)-2,7-dimethyl-5-((5-chlorothiophen-2-yl)sulfonylcarbamoyl)-3H-imidazo[4,5-b]pyridine]
225 to 227 | Cc1cc(C(=O)NS(=O)(=O)/C=C/c2ccccc2)nc2c1nc(C)n2Cc1ccc(Br)cc1Cl [Example 106-2, (E)-3-(4-bromo-2-chlorobenzyl)-2,7-dimethyl-5-[(2-phenylethenyl)sulfonylcarbamoyl]-3H-imidazo[4,5-b]pyridine]
214 to 215 | Cc1cc(C(=O)NS(=O)(=O)c2ccc(Cl)s2)nc2c1nc(C)n2Cc1ccc(Br)cc1Cl [Example 106-3, 3-(4-bromo-2-chlorobenzyl)-5-[(5-chlorothiophen-2-yl)sulfonylcarbamoyl]-2,7-dimethyl-3H-imidazo[4,5-b]pyridine]
140 to 142 | Cc1nc2ccc(C(=O)NS(=O)(=O)/C=C/c3ccccc3)nc2n1Cc1ccc(C(F)(F)F)cc1Cl [Example 109-1, (E)-3-(2-chloro-4-(trifluoromethyl)benzyl)-2-methyl-5-((2-phenylethenyl)sulfonylcarbamoyl)-3H-imidazo[4,5-b]pyridine]
170 to 171 | Cc1nc2ccc(C(=O)NS(=O)(=O)c3ccc(Cl)s3)nc2n1Cc1ccc(C(F)(F)F)cc1Cl [Example 109-3, 3-(2-chloro-4-(trifluoromethyl)-benzyl)-5-((5-chlorothiophen-2-yl)sulfonylcarbamoyl)-2-methyl-3H-imidazo[4,5-b]pyridine]
172 to 173 | Cc1nc2ccc(C(=O)NS(=O)(=O)c3ccc(Br)s3)nc2n1Cc1ccc(C(F)(F)F)cc1Cl [Example 109-4, 5-((5-bromothiophen-2-yl)sulfonylcarbamoyl)-3-(2-chloro-4-(trifluoromethyl)benzyl)-2-methyl-3H-imidazo[4,5-b]pyridine]
